Source: ChEMBL document CHEMBL3046211, “Synthesis, antimicrobial, analgesic activity, and molecular docking studies of novel 1-(5,7-dichloro-1,3-benzoxazol-2-yl)-3-phenyl-1H-pyrazole-4-carbaldehyde derivatives” (2013)
In brackets after ≈: the same amount, converted by molar mass.

Assays:
[1] = test system: Mus musculus; assay: Analgesic activity in Swiss albino mouse assessed as protection against acetic acid-induced writhing at 100 mg/kg, po administered 1 hr prior to acetic acid-challenge measured after 5 mins for 20 mins relative to control; assay type: functional
[2] = test system: Bacillus subtilis; assay: Antibacterial activity against Bacillus subtilis pateint isolate; assay type: functional
[3] = test system: Candida albicans; assay: Antifungal activity against Candida albicans at 40 ug/ml after 72 hrs by agar well diffusion method; assay type: functional; details: read-out: IZ
[4] = test system: Staphylococcus aureus; assay: Antibacterial activity against Staphylococcus aureus pateint isolate; assay type: functional
[5] = test system: Aspergillus niger; assay: Antifungal activity against Aspergillus niger at 40 ug/ml after 72 hrs by agar well diffusion method; assay type: functional; details: read-out: IZ
[6] = test system: Aspergillus niger; assay: Antifungal activity against Aspergillus niger; assay type: functional
[7] = test system: Salmonella typhi; assay: Antibacterial activity against Salmonella typhi pateint isolate; assay type: functional, Salmonella enterica subsp. enterica serovar Typhi; details: Salmonella enterica
[8] = test system: Salmonella typhi; assay: Antibacterial activity against Salmonella typhi pateint isolate at 40 ug/ml after 24 hrs by agar well diffusion method; assay type: functional, Salmonella enterica subsp. enterica serovar Typhi; details: Salmonella enterica, read-out: IZ
[9] = test system: Candida albicans; assay: Antifungal activity against Candida albicans; assay type: functional
[10] = test system: Escherichia coli; assay: Antibacterial activity against Escherichia coli pateint isolate; assay type: functional
[11] = test system: Escherichia coli; assay: Antibacterial activity against Escherichia coli pateint isolate at 40 ug/ml after 24 hrs by agar well diffusion method; assay type: functional
[12] = test system: Staphylococcus aureus; assay: Antibacterial activity against Staphylococcus aureus pateint isolate at 40 ug/ml after 24 hrs by agar well diffusion method; assay type: functional; details: read-out: IZ
[13] = test system: Bacillus subtilis; assay: Antibacterial activity against Bacillus subtilis pateint isolate at 40 ug/ml after 24 hrs by agar well diffusion method; assay type: functional; details: read-out: IZ
[14] = test system: Salmonella typhi; assay: Antibacterial activity against Salmonella typhi pateint isolate at 40 ug/100 ul after 24 hrs by agar well diffusion method; assay type: functional, Salmonella enterica subsp. enterica serovar Typhi
[15] = test system: Candida albicans; assay: Antifungal activity against Candida albicans at 40 ug/100 ul after 72 hrs by agar well diffusion method; assay type: functional
[16] = test system: Aspergillus niger; assay: Antifungal activity against Aspergillus niger at 40 ug/100 ul after 72 hrs by agar well diffusion method; assay type: functional

| Structure (SMILES) | Activity [1] | MIC [2] | zone of inhibition at 40 µg/mL [3] | MIC [4] | zone of inhibition at 40 µg/mL [5] | MIC [6] | MIC [7] | zone of inhibition at 40 µg/mL [8] | MIC [9] | MIC [10] | inhibition zone (IZ) [11] | zone of inhibition at 40 µg/mL [12] | zone of inhibition at 40 µg/mL [13] | inhibition zone (IZ) [14] | inhibition zone (IZ) [15] | inhibition zone (IZ) [16] |
| --- | --- | --- | --- | --- | --- | --- | --- | --- | --- | --- | --- | --- | --- | --- | --- | --- |
| CC(=O)Oc1ccccc1C(=O)O [ASPIRIN] | 58.74% | – | – | – | – | – | – | – | – | – | – | – | – | – | – | – |
| COc1ccc(-c2nn(-c3nc4cc(Cl)cc(Cl)c4o3)cc2C=O)cc1 | 50.27% | 40 µg/mL (≈ 103 µM) | 20 mm | 30 µg/mL (≈ 77.3 µM) | 20 mm | 30 µg/mL (≈ 77.3 µM) | 40 µg/mL (≈ 103 µM) | 19 mm | 40 µg/mL (≈ 103 µM) | 40 µg/mL (≈ 103 µM) | 22 mm | 19 mm | 20 mm | – | – | – |
| O=Cc1cn(-c2nc3cc(Cl)cc(Cl)c3o2)nc1-c1ccc(O)cc1 | 55.78% | 20 µg/mL (≈ 53.4 µM) | 22 mm | 20 µg/mL (≈ 53.4 µM) | 22 mm | 30 µg/mL (≈ 80.2 µM) | 30 µg/mL (≈ 80.2 µM) | 21 mm | 20 µg/mL (≈ 53.4 µM) | 30 µg/mL (≈ 80.2 µM) | 22 mm | 23 mm | 23 mm | – | – | – |
| O=C(O)c1cn(C2CC2)c2cc(N3CCNCC3)c(F)cc2c1=O [CIPROFLOXACIN] | – | – | – | – | – | – | – | – | – | – | – | – | – | 21 mm | – | – |
| OC(Cn1cncn1)(Cn1cncn1)c1ccc(F)cc1F [FLUCONAZOLE] | – | – | – | – | – | – | – | – | – | – | – | – | – | – | 23 mm | 22 mm |
| O=Cc1cn(-c2nc3cc(Cl)cc(Cl)c3o2)nc1-c1ccc(Cl)c(Cl)c1 | 50% | 30 µg/mL (≈ 70.2 µM) | 22 mm | 30 µg/mL (≈ 70.2 µM) | 22 mm | 40 µg/mL (≈ 93.7 µM) | 30 µg/mL (≈ 70.2 µM) | 20 mm | 40 µg/mL (≈ 93.7 µM) | 30 µg/mL (≈ 70.2 µM) | 22 mm | 22 mm | 22 mm | – | – | – |
| O=Cc1cn(-c2nc3cc(Cl)cc(Cl)c3o2)nc1-c1ccc(Br)cc1 | 54.63% | 20 µg/mL (≈ 45.8 µM) | 23 mm | 20 µg/mL (≈ 45.8 µM) | 22 mm | 20 µg/mL (≈ 45.8 µM) | 30 µg/mL (≈ 68.6 µM) | 21 mm | 30 µg/mL (≈ 68.6 µM) | 20 µg/mL (≈ 45.8 µM) | 22 mm | 23 mm | 22 mm | – | – | – |
| Cc1ccc(-c2nn(-c3nc4cc(Cl)cc(Cl)c4o3)cc2C=O)cc1 | 51.4% | 30 µg/mL (≈ 80.6 µM) | 19 mm | 30 µg/mL (≈ 80.6 µM) | 19 mm | 30 µg/mL (≈ 80.6 µM) | 30 µg/mL (≈ 80.6 µM) | 20 mm | 30 µg/mL (≈ 80.6 µM) | 40 µg/mL (≈ 107 µM) | 21 mm | 21 mm | 20 mm | – | – | – |
